Patent US20220040144A1, “COMPOSITIONS AND METHODS FOR THE TREATMENT OF CUTANEOUS T CELL LYMPHOMA (CTCL)” (The State of Israel, Ministry of Agriculture & Rural …, priority 2018, published 2022)

Assays:
HUT78 cells = test: XTT cell viability assay on HUT78 cells; format: cell-based, human; details: CBD only, concentration equal to that in combined S4+S5 (7.3 μg/ml), 48 hours
Method: (§1) XTT Cell Viability Assays—Cells were seeded in 96-wells plates at 10,000 cells per well in triplicates in DMEM or RPMI640 growing media. The following day, cells were treated with the different extracts, separated fractions and combinations thereof or pure compounds; or media or solvent only as control. To evaluate involvement of the CB1 and CB2 receptors, 10 μM of AM251 (a CB1 receptor inverse agonist, TOCRIS, 1117/1) or SR144528 (a CB2 receptor inverse agonist, Abcam) were added to the cells 1 hour prior to treatment. Cells were incubated for 48 hours and following XTT (2,3-bis(2-methoxy-4-nitro-5-sulfophenyl)-5-[(phenylamino)-carbonyl]-2H-tetrazolium inner salt) reduction was used to quantify viability according to manufacturer's instruction (BI, Kibbutz Beit-Haemek, Israel). Briefly, cells were incubated with XTT reagent for 2 hours at 37° C. in a humidified 5% CO2, 95% air atmosphere. Absorbance was recorded by a photometer Synergy H1 hybrid reader (BioTek) at 490 nm with 650 nm of reference wavelength. Cells survival was estimated according to the following equation: % cell survival=100×(At−Ac)(treatment)/(At−Ac)(control), where At and Ac are the absorbencies (490 nm) of the XTT colorimetric reaction in treated and control cultures, respectively, minus non-specific absorption measured at 650 nm. Absorbance of medium alone was also deducted from specific readings. […]

MyLa cells = test: XTT cell viability assay on MyLa cells, with Bliss synergy analysis; details: CBD 7.3 μg/ml, CBG 3.5 μg/ml, THC 0.044 μg/ml, CBC 0.027 μg/ml (as in S4 5 + S5 6 μg/mL), 48 hours
Method: as §1

C=C(C)[C@@H]1CCC(C)=C[C@H]1c1c(O)cc(CCCCC)cc1O [CBD, cannabidiol]
cell death of HuT-78 cells (HUT78 cells): 50% | cytotoxicity of pure cannabinoids on My-La cells (in words) (MyLa cells): did not induce cell death
